Read-outs that look alike come from different tables or passages of the source.
Columns and labels:
HIV-1 = assay: microbe, parasite or virus in culture; type: cell-based; conditions: for IC50: HIV-infected MT-4 cells, MTT, OD 540 nm, read-out: IC50 (50% inhibitory concentration, dose achieving 50% protection); for SI (selectivity index, ratio of CC50 to IC50): MT-4 cells
Experimental: A rapid, sensitive and automated assay procedure was used for the in vitro evaluation of anti-HIV agents. An […] T4-cell line, MT-4, which was previously shown (Koyanagi et al., Int. J. Cancer, 36, 445–451, 1985) to be highly susceptible to and permissive for HIV infection, served as the target cell line. Inhibition of the HIV-induced cytopathic effect was used as the end point. The viability of both HIV- and mock-infected cells was assessed spectrophotometrically via the in situ reduction of 3-(4,5-dimethylthiazol-2-yl)-2,5-diphenyltetrazolium bromide (MTT). The 50% cytotoxic concentration (CC50 in μM) was defined as the concentration of compound that reduced the absorbance of the mock-infected control sample by 50%. The percent protection achieved by the compound in HIV-infected cells was calculated by the following formula:
(§1) [formula] whereby (ODT)HIV is the optical density measured with a given concentration of the test compound in HIV-infected cells; (ODC)HIV is the optical density measured for the control untreated HIV-infected cells; (ODC)MOCK is the optical density measured for the control untreated mock-infected cells; all optical density values were determined at 540 nm. The dose achieving 50% protection according to the above formula was defined as the 50% inhibitory concentration (IC50 in μM). The ratio of CC50 to IC50 was defined as the selectivity index (SI).

[1] = Cytotoxicity in mock-infected MT-4 cells (MTT); type: cell-based; conditions: human, OD 540 nm, read-out: CC50 (50% cytotoxic concentration)
Experimental: (§2) A rapid, sensitive and automated assay procedure was used for the in vitro evaluation of anti-HIV agents. […] Inhibition of the HIV-induced cytopathic effect was used as the end point. The viability of both HIV- and mock-infected cells was assessed spectrophotometrically via the in situ reduction of 3-(4,5-dimethylthiazol-2-yl)-2,5-diphenyltetrazolium bromide (MTT). […] The percent protection achieved by the compound in HIV-infected cells was calculated by the following formula:
as §1, with “The dose achieving 50% protection according to the above formula was defined as the 50% inhibitory concentration (IC50 in μM).” left out

mock-infected MT-4 cells = assay: Cytotoxicity in mock-infected MT-4 cells (MTT); type: cell-based; conditions: OD 540 nm, read-out: CC50 (50% cytotoxic concentration)
Experimental: as §2
as §1, with “The dose achieving 50% protection according to the above formula was defined as the 50% inhibitory concentration (IC50 in μM).” left out

[2] = Human immunodeficiency virus 1, MT4

Row | melting point | SMILES | IC50 (HIV-1; [2]) | SI (selectivity index, ratio of CC50 to IC50) (HIV-1) | CC50 [1] | IC50 (HIV-1) | CC50 (mock-infected MT-4 cells)
1 | – | Cc1cc(C#N)cc(C)c1Oc1nc(Nc2ccc(C#N)cc2)c(=O)n(C)c1C [Compound 1, 4-[[6-[(4-cyanophenyl)amino]-4,5-dihydro-3,4-dimethyl-5-oxopyrazinyl]oxy]-3,5-dimethyl-benzonitrile] | 0.0063 µM | 15849 | 99.8 µM | – | –
2 | – | Cc1ccccc1Oc1cn(C)c(=O)c(Nc2ccc(C#N)cc2)n1 [Compound 2, 4-[[3,4-dihydro-4-methyl-6-(2-methylphenoxy)-3-oxopyrazinyl]amino]-benzonitrile] | – | – | – | 0.004 µM | 100 µM
3 | – | Cc1ccc(Oc2cn(C)c(=O)c(Nc3ccc(C#N)cc3)n2)c(C)c1 [Compound 3, 4-[[6-(2,4-dimethylphenoxy)-3,4-dihydro-4-methyl-3-oxopyrazinyl]amino]-benzonitrile] | – | – | – | 0.0006 µM | 95.1 µM
4 | – | Cc1ccccc1Sc1cn(C)c(=O)c(Nc2ccc(C#N)cc2)n1 [Compound 4, 4-[[3,4-dihydro-4-methyl-6-[(2-methylphenyl)thio]-3-oxopyrazinyl]amino]-benzonitrile] | 0.02 µM | 5012 | 100 µM | – | –
5 | – | Cc1ccccc1Oc1nc(Nc2ccc(Cl)cc2)c(=O)n(C)c1C [Compound 6, 3-[(4-chlorophenyl)amino]-1,6-dimethyl-5-(2-methylphenoxy)-2(1H)-pyrazinone] | 0.1 µM | 1000 | 100 µM | – | –
6 | – | Cc1ccc(Oc2cn(C)c(=O)c(Nc3ccccc3)n2)c(C)c1 [Compound 7, 5-(2,4-dimethylphenoxy)-1-methyl-3-(phenylamino)-2(1H)-pyrazinone] | 0.2 µM | 501 | 99.9 µM | – | –
7 | – | Cc1ccc(Sc2nc(Nc3ccc(Cl)cc3)c(=O)n(C)c2C)c(C)c1 [Compound 8, 3-[(4-chlorophenyl)amino]-5-[(2,4-dimethylphenyl)thio]-1,6-dimethyl-2(1H)-pyrazinone] | 0.501 µM | 200 | 100 µM | – | –
8 | – | Cc1ccc(Oc2cn(C)c(=O)c(Nc3ccc(C(F)(F)F)cc3)n2)c(C)c1 [Compound 11, 5-(2,4-dimethylphenoxy)-1-methyl-3-[[4-(trifluoromethyl)phenyl]amino]-2(1H)-pyrazinone] | 0.501 µM | 200 | 100 µM | – | –
9 | – | Cc1cc(C)c(Sc2cn(C)c(=O)c(Nc3ccc(C#N)cc3)n2)c(C)c1 [Compound 13, 4-[[3,4-dihydro-4-methyl-3-oxo-6-[(2,4,6-trimethylphenyl)thio]pyrazinyl]amino]-benzonitrile] | – | – | – | 0.0158 µM | 99.7 µM
10 | – | Cc1cc(C)c(Sc2cn(C)c(=O)c(Nc3ccc(Cl)cc3)n2)c(C)c1 [Compound 14, 3-[(4-chlorophenyl)amino]-1-methyl-5-[(2,4,6-trimethylphenyl)thio]-2(1H)-pyrazinone] | 0.0794 µM | 1259 | 99.9 µM | – | –
11 | – | Cc1cc(C)c(S(=O)(=O)c2cn(C)c(=O)c(Nc3ccc(C#N)cc3)n2)c(C)c1 [Compound 15, 4-[[3,4-dihydro-4-methyl-3-oxo-6-[(2,4,6-trimethylphenyl)sulfonyl]pyrazinyl]amino]-benzonitrile] | – | – | – | 0.0079 µM | 99.4 µM
12 | – | Cc1ccc(S(=O)(=O)c2nc(Nc3ccc(C#N)cc3)c(=O)n(C)c2C)c(C)c1 [Compound 16, 4-[[6-[(2,4-dimethylphenyl)sulfonyl]-3,4-dihydro-4,5-dimethyl-3-oxopyrazinyl]amino]-benzonitrile] | 0.0316 µM | 3162 | 99.9 µM | – | –
13 | – | Cc1cc(C)c(S(=O)(=O)c2nc(Nc3ccc(C#N)cc3)c(=O)n(C)c2C)c(C)c1 [Compound 17, 4-[[3,4-dihydro-4,5-dimethyl-3-oxo-6-[(2,4,6-trimethylphenyl)sulfonyl]pyrazinyl]amino]-benzonitrile] | 0.005 µM | 19953 | 99.8 µM | – | –
14 | – | Cc1cc(C)c([S+]([O-])c2nc(Nc3ccc(C#N)cc3)c(=O)n(C)c2C)c(C)c1 (stereo not shown) [Compound 18] | 0.004 µM | 25119 | 100 µM | – | –
15 | – | Cc1ccccc1Oc1nc(Nc2ccc(C#N)cc2)c(=O)n(C)c1C [Compound 19, 4-[[3,4-dihydro-4,5-dimethyl-6-(2-methylphenoxy)-3-oxopyrazinyl]amino]-benzonitrile] | 0.005 µM | 19953 | 99.8 µM | – | –
16 | – | Cc1ccc(Oc2nc(Nc3ccc(C#N)cc3)c(=O)n(C)c2C)c(C)c1 [Compound 20, 4-[[6-(2,4-dimethylphenoxy)-3,4-dihydro-4,5-dimethyl-3-oxopyrazinyl]amino]-benzonitrile] | 0.0025 µM | 39811 | 99.5 µM | – | –
17 | – | Cc1ccc(Sc2cn(C)c(=O)c(Nc3ccc(C#N)cc3)n2)c(C)c1 [Compound 21, 4-[[6-[(2,4-dimethylphenyl)thio]-3,4-dihydro-4-methyl-3-oxopyrazinyl]amino]-benzonitrile] | – | – | – | 0.005 µM | 99.8 µM
18 | – | Cc1ccc(Oc2cn(C)c(=O)c(Nc3ccc(Cl)cc3)n2)c(C)c1 [Compound 22, 3-[(4-chlorophenyl)amino]-5-(2,4-dimethylphenoxy)-1-methyl-2(1H)-pyrazinone] | 0.02 µM | 5012 | 100 µM | – | –
19 | – | Cc1ccc(Oc2nc(Nc3ccc(Cl)cc3)c(=O)n(C)c2C)c(C)c1 [Compound 23, 3-[(4-chlorophenyl)amino]-5-(2,4-dimethylphenoxy)-1,6-dimethyl-2(1H)-pyrazinone] | 0.0501 µM | 1995 | 99.9 µM | – | –
20 | – | Cc1ccccc1Sc1nc(Nc2ccc(C#N)cc2)c(=O)n(C)c1C [Compound 24, 4-[[3,4-dihydro-4,5-dimethyl-6-[(2-methylphenyl)thio]-3-oxopyrazinyl]amino]-benzonitrile] | 0.0251 µM | 3981 | 99.9 µM | – | –
21 | 195 °C | Cc1ccccc1Sc1nc(Nc2ccc(C#N)cc2)c(=O)n(Cc2ccccc2)c1C [Compound 27, 4-[[6-[(2-methylphenyl)thio]-5-methyl-3,4-dihydro-3-oxo-4-(phenylmethyl)pyrazinyl]amino]-benzonitrile] | – | – | – | – | –
22 | 290 to 291 °C | Cc1ccccc1Sc1nc(Nc2ccc(C#N)cc2)c(=O)[nH]c1C [Compound 28, 4-[[3,4-dihydro-5-methyl-6-[(2-methylphenyl)thio]-3-oxopyrazinyl]amino]-benzonitrile] | – | – | – | – | –

Row | SMILES | melting point | IC50 (HIV-1; [2]) | SI (selectivity index, ratio of CC50 to IC50) (HIV-1) | CC50 [1] | IC50 (HIV-1) | CC50 (mock-infected MT-4 cells)
23 | Cc1ccc(Oc2cn(Cc3ccccc3)c(=O)c(Nc3ccc(C#N)cc3)n2)c(C)c1 [Compound 9, 4-[[6-(2,4-dimethylphenoxy)-3,4-dihydro-3-oxo-4-(phenylmethyl)pyrazinyl]amino]-benzonitrile] | 175 °C | 0.0316 µM | 3162 | 99.9 µM | – | –
